Laboratory results: ChEMBL document CHEMBL1201862, “PubChem BioAssay data set” (2004)
Activity calls are given as the source filed them.

Experiments:
Cytochrome P450 3A4 = Cytochrome P450 3A4 (Homo sapiens, UniProt P08684);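 further: CYP3A4 tested as one member of a cytochrome P450 panel screen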
Cytochrome P450 2C9 = Cytochrome P450 2C9 (Homo sapiens, UniProt P11712)
Cytochrome P450 2C19 = Cytochrome P450 2C19 (Homo sapiens, UniProt P33261); assay: Cytochrome panel assay with activity outcomes. Panel member name: p450-cyp2c19 Compounds with AC50 equal or less than 10 uM are considered active; format: functional; conditions: read-out: AC50
[1] = biological target: T1, Nuclear receptor subfamily 0 group B member 1 (Homo sapiens, UniProt P51843); format: functional, cell-based;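 further: HEK293T cells transfected with SF-1 and DAX-1 plus StAR promoter luciferase reporter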
T1 sequence (P51843 whole entry): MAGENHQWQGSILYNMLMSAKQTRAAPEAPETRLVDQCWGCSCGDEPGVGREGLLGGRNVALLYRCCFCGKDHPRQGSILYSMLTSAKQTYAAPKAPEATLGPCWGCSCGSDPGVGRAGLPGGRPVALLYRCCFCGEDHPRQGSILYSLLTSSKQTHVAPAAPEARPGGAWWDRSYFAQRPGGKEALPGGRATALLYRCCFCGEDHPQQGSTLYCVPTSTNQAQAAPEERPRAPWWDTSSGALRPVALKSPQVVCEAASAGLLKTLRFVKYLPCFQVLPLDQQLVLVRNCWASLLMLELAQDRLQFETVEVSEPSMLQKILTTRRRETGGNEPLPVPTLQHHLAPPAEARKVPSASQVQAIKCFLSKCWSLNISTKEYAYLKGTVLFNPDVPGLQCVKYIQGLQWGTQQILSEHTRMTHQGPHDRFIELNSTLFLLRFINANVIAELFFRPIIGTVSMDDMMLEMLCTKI

cells [2] = format: functional, cell-based
Paired box protein Pax-8 = Paired box protein Pax-8 (Homo sapiens, UniProt Q06710); assay: inhibitors of PAX8-driven TPO luciferase reporter, dose response, RMG-I cells, cherry-pick (AID 687027); format: functional, cell-based;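 further: luciferase reporter driven by Pax8 target thyroperoxidase promoter measured by SteadyGlo luminescence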
Cytochrome P450 1A2 = biological target: T2, Cytochrome P450 1A2 (Homo sapiens, UniProt P05177);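 further: PubChem cytochrome P450 panel assay, CYP1A2 panel member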
T2 sequence (P05177 whole entry): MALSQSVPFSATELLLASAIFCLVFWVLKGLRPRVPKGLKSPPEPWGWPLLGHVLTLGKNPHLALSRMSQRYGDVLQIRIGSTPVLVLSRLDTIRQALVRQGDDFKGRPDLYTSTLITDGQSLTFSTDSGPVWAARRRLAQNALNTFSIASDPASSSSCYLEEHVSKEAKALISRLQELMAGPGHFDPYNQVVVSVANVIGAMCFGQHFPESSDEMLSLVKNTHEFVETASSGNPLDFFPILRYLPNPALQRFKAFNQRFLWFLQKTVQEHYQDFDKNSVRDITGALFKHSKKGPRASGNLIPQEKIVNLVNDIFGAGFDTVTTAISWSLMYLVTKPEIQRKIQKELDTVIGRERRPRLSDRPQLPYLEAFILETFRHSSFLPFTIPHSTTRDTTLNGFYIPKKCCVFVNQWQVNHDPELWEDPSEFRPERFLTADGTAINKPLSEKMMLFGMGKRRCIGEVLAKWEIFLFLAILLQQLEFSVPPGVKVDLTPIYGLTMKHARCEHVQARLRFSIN

[3] = microbe, parasite or virus in culture; format: functional; conditions: Mycobacterium tuberculosis
cells [4] = format: functional

Chain of Cytochrome P450 3A4 (P08684 whole entry): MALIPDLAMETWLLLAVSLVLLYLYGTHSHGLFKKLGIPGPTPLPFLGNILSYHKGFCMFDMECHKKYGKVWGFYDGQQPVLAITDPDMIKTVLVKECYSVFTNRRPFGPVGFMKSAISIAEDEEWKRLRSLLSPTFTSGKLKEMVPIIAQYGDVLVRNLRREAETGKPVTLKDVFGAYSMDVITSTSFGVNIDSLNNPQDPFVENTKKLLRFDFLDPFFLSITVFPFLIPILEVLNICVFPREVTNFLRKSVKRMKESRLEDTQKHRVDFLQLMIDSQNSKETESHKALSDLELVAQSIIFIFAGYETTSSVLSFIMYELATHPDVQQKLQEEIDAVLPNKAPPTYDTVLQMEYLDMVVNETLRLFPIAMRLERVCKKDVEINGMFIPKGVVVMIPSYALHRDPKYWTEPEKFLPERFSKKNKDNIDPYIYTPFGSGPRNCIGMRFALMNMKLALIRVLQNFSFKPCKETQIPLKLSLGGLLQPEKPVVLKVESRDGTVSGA
Chain of Cytochrome P450 2C9 (P11712 whole entry): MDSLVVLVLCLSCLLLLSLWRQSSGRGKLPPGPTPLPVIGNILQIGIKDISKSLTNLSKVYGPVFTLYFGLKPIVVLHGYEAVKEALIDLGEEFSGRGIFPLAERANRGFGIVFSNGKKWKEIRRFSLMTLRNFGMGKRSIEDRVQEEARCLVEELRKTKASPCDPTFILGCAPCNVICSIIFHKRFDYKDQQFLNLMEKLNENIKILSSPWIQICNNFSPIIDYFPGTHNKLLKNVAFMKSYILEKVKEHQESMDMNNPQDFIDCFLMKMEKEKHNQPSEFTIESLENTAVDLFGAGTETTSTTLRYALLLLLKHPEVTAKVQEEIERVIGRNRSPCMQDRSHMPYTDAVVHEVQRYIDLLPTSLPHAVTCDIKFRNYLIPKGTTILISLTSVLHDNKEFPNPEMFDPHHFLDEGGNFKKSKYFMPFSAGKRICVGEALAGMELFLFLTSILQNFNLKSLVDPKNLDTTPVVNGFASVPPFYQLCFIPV
Chain of Paired box protein Pax-8 (Q06710 whole entry): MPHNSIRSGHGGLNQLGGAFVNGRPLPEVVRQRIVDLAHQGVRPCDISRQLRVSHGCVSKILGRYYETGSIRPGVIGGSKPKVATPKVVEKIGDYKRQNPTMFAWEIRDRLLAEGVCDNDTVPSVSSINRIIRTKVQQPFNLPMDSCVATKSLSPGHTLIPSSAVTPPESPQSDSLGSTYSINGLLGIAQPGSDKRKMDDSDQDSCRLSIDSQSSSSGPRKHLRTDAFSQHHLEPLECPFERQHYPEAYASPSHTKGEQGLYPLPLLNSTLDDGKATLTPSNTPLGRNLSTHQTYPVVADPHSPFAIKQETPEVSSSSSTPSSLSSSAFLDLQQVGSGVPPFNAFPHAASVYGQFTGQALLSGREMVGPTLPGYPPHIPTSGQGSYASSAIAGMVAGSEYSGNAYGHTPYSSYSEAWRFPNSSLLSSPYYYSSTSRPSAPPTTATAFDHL
Chain of Cytochrome P450 2C19 (P33261 whole entry): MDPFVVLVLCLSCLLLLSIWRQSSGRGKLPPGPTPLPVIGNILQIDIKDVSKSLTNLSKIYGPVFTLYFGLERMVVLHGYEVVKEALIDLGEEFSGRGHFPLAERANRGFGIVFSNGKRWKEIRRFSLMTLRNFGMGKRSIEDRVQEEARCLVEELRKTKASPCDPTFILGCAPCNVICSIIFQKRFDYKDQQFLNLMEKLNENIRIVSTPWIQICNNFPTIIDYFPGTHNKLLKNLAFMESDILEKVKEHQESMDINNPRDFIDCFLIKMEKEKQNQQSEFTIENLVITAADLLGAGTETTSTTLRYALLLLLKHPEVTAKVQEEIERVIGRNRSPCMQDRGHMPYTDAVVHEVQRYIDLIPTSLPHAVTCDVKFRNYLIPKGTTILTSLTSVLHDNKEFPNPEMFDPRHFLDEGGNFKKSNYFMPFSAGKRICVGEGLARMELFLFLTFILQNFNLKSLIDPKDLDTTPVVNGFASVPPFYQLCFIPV

| SMILES | AC50 (Cytochrome P450 3A4) | IC50 [1] | IC50 (cells [2]) | AC50 (Cytochrome P450 1A2) | other results |
| --- | --- | --- | --- | --- | --- |
| CCn1c(/C=C2/C(=O)N(C)c3ccccc32)nc2ccccc2c1=O | inconclusive | – | – | – | – |
| O=C(OC1CCN(c2ncc(C(F)(F)F)cc2Cl)CC1)c1cccc(C(F)(F)F)c1 | inconclusive | – | – | – | AC50 (Cytochrome P450 2C9): 0.2 µM (inconclusive); AC50 (Cytochrome P450 2C19): 8.91 µM (inconclusive) |
| CC(=Nc1ccccc1)C1=C(O)C(Cc2ccccc2)NC1=O (stereo not given) | – | 15.8 µM (inactive) | > 67.6 µM (inactive) | – | – |
| CC(=O)Nc1ccc(-c2ccnc3c2CC(C(=O)NCc2ccccc2)O3)cc1 (stereo not given) | – | > 67.5 µM (inactive) | > 67.5 µM (inactive) | – | AC50 (Paired box protein Pax-8): 1.5 µM (active) |
| O=C(c1ccc(F)cc1)C1CCN(CCCCc2ccccc2)CC1 | inconclusive | – | – | 31.6 µM (inconclusive) | – |
| Cc1cc(/C=N\NC(=O)c2cccs2)c(C)n1-c1ccc2ncccc2c1 | inconclusive | – | – | 39.8 µM (inconclusive) | CC50 [3]: > 40 µM (active); IC50 (cells [4]): 34 µM (active) |
